Structure (SMILES): CC(=O)N[C@@H](CC(C)C)C(=O)O
- solubility (mole fraction) (in acetone, 283.15 K): 0.00363
- solubility (mole fraction) (in acetone, 288.15 K): 0.00434
- solubility (mole fraction) (in acetone, 293.15 K): 0.00525
- solubility (mole fraction) (in acetone, 298.15 K): 0.0062
- solubility (mole fraction) (in acetone, 303.15 K): 0.00734
- solubility (mole fraction) (in acetone, 308.15 K): 0.00886
- solubility (mole fraction) (in acetone, 313.15 K): 0.0106
- solubility (mole fraction) (in acetone, 318.15 K): 0.0124
- solubility (mole fraction) (in acetone, 323.15 K): 0.0146
- solubility (mole fraction) (in acetonitrile, 283.15 K): 0.000712
- solubility (mole fraction) (in acetonitrile, 288.15 K): 0.000811
- solubility (mole fraction) (in acetonitrile, 293.15 K): 0.00114
- solubility (mole fraction) (in acetonitrile, 298.15 K): 0.00141
- solubility (mole fraction) (in acetonitrile, 303.15 K): 0.00163
- solubility (mole fraction) (in acetonitrile, 308.15 K): 0.00198
- solubility (mole fraction) (in acetonitrile, 313.15 K): 0.00249
- solubility (mole fraction) (in acetonitrile, 318.15 K): 0.00295
- solubility (mole fraction) (in acetonitrile, 323.15 K): 0.00335
- solubility (mole fraction) (in ethanol, 283.15 K): 0.0243
- solubility (mole fraction) (in ethanol, 288.15 K): 0.0278
- solubility (mole fraction) (in ethanol, 293.15 K): 0.0314
- solubility (mole fraction) (in ethanol, 298.15 K): 0.0353
- solubility (mole fraction) (in ethanol, 303.15 K): 0.0396
- solubility (mole fraction) (in ethanol, 308.15 K): 0.0456
- solubility (mole fraction) (in ethanol, 313.15 K): 0.0504
- solubility (mole fraction) (in ethanol, 318.15 K): 0.0567
- solubility (mole fraction) (in ethanol, 323.15 K): 0.0624
- solubility (mole fraction) (in ethyl acetate, 283.15 K): 0.00103
- solubility (mole fraction) (in ethyl acetate, 288.15 K): 0.00127
- solubility (mole fraction) (in ethyl acetate, 293.15 K): 0.0015
- solubility (mole fraction) (in ethyl acetate, 298.15 K): 0.00178
- solubility (mole fraction) (in ethyl acetate, 303.15 K): 0.00207
- solubility (mole fraction) (in ethyl acetate, 308.15 K): 0.00243
- solubility (mole fraction) (in ethyl acetate, 313.15 K): 0.0028
- solubility (mole fraction) (in ethyl acetate, 318.15 K): 0.00328
- solubility (mole fraction) (in ethyl acetate, 323.15 K): 0.00374
- solubility (mole fraction) (in isobutanol, 283.15 K): 0.0148
- solubility (mole fraction) (in isobutanol, 288.15 K): 0.0176
- solubility (mole fraction) (in isobutanol, 293.15 K): 0.0206
- solubility (mole fraction) (in isobutanol, 298.15 K): 0.0242
- solubility (mole fraction) (in isobutanol, 303.15 K): 0.0283
- solubility (mole fraction) (in isobutanol, 308.15 K): 0.0328
- solubility (mole fraction) (in isobutanol, 313.15 K): 0.0375
- solubility (mole fraction) (in isobutanol, 318.15 K): 0.0425
- solubility (mole fraction) (in isobutanol, 323.15 K): 0.0478
- solubility (mole fraction) (in isopropanol, 283.15 K): 0.0177
- solubility (mole fraction) (in isopropanol, 288.15 K): 0.0206
- solubility (mole fraction) (in isopropanol, 293.15 K): 0.0238
- solubility (mole fraction) (in isopropanol, 298.15 K): 0.0274
- solubility (mole fraction) (in isopropanol, 303.15 K): 0.0313
- solubility (mole fraction) (in isopropanol, 308.15 K): 0.0354
- solubility (mole fraction) (in isopropanol, 313.15 K): 0.0405
- solubility (mole fraction) (in isopropanol, 318.15 K): 0.0464
- solubility (mole fraction) (in isopropanol, 323.15 K): 0.0526
- solubility (mole fraction) (in methanol, 283.15 K): 0.0309
- solubility (mole fraction) (in methanol, 288.15 K): 0.0357
- solubility (mole fraction) (in methanol, 293.15 K): 0.0403
- solubility (mole fraction) (in methanol, 298.15 K): 0.0456
- solubility (mole fraction) (in methanol, 303.15 K): 0.0514
- solubility (mole fraction) (in methanol, 308.15 K): 0.0589
- solubility (mole fraction) (in methanol, 313.15 K): 0.066
- solubility (mole fraction) (in methanol, 318.15 K): 0.0729
- solubility (mole fraction) (in methanol, 323.15 K): 0.0824
- solubility (mole fraction) (in methyl acetate, 283.15 K): 0.00106
- solubility (mole fraction) (in methyl acetate, 288.15 K): 0.00134
- solubility (mole fraction) (in methyl acetate, 293.15 K): 0.00159
- solubility (mole fraction) (in methyl acetate, 298.15 K): 0.00191
- solubility (mole fraction) (in methyl acetate, 303.15 K): 0.00223
- solubility (mole fraction) (in methyl acetate, 308.15 K): 0.00259
- solubility (mole fraction) (in methyl acetate, 313.15 K): 0.0033
- solubility (mole fraction) (in methyl acetate, 318.15 K): 0.00396
- solubility (mole fraction) (in methyl acetate, 323.15 K): 0.00453
- solubility (mole fraction) (in n-butanol, 283.15 K): 0.017
- solubility (mole fraction) (in n-butanol, 288.15 K): 0.0192
- solubility (mole fraction) (in n-butanol, 293.15 K): 0.0221
- solubility (mole fraction) (in n-butanol, 298.15 K): 0.0255
- solubility (mole fraction) (in n-butanol, 303.15 K): 0.0291
- solubility (mole fraction) (in n-butanol, 308.15 K): 0.0331
- solubility (mole fraction) (in n-butanol, 313.15 K): 0.0379
- solubility (mole fraction) (in n-butanol, 318.15 K): 0.0429
- solubility (mole fraction) (in n-butanol, 323.15 K): 0.0489
- solubility (mole fraction) (in n-propanol, 283.15 K): 0.0196
- solubility (mole fraction) (in n-propanol, 288.15 K): 0.0223
- solubility (mole fraction) (in n-propanol, 293.15 K): 0.0251
- solubility (mole fraction) (in n-propanol, 298.15 K): 0.0286
- solubility (mole fraction) (in n-propanol, 303.15 K): 0.0329
- solubility (mole fraction) (in n-propanol, 308.15 K): 0.0376
- solubility (mole fraction) (in n-propanol, 313.15 K): 0.0424
- solubility (mole fraction) (in n-propanol, 318.15 K): 0.0478
- solubility (mole fraction) (in n-propanol, 323.15 K): 0.0541
- solubility (mole fraction) (in n-propyl acetate, 283.15 K): 0.00087
- solubility (mole fraction) (in n-propyl acetate, 288.15 K): 0.00107
- solubility (mole fraction) (in n-propyl acetate, 293.15 K): 0.00126
- solubility (mole fraction) (in n-propyl acetate, 298.15 K): 0.00149
- solubility (mole fraction) (in n-propyl acetate, 303.15 K): 0.00177
- solubility (mole fraction) (in n-propyl acetate, 308.15 K): 0.00211
- solubility (mole fraction) (in n-propyl acetate, 313.15 K): 0.00249
- solubility (mole fraction) (in n-propyl acetate, 318.15 K): 0.003
- solubility (mole fraction) (in n-propyl acetate, 323.15 K): 0.00357
- solubility (mole fraction) (in sec-butanol, 283.15 K): 0.0177
- solubility (mole fraction) (in sec-butanol, 288.15 K): 0.0207
- solubility (mole fraction) (in sec-butanol, 293.15 K): 0.0241
- solubility (mole fraction) (in sec-butanol, 298.15 K): 0.0279
- solubility (mole fraction) (in sec-butanol, 303.15 K): 0.0325
- solubility (mole fraction) (in sec-butanol, 308.15 K): 0.037
- solubility (mole fraction) (in sec-butanol, 313.15 K): 0.042
- solubility (mole fraction) (in sec-butanol, 318.15 K): 0.0473
- solubility (mole fraction) (in sec-butanol, 323.15 K): 0.0541

From BigSolDB 2.1
